Experimental data taken from the supplement of paper PMC11061612.

Assays:
Olaparib = compound: O=C(c1cc(Cc2n[nH]c(=O)c3ccccc23)ccc1F)N1CCN(C(=O)C2CC2)CC1 [Olaparib]; conditions: max 10 µM
In short: (§1)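 Viability was measured with CellTiter-Glo 2.0 luminescence after 72 hours of dosing at a final DMSO of typically 0.2%, and scaled between blank-well and DMSO-well means. Beforehand, cancer cell lines sat 24 hours at 37°C and 5% CO2 in 1536-well plates in 7.5 μl DMEM/F12 or RPMI with 10% FBS. A non-linear mixed effects model fitted two-parameter logistic curves to the dose responses. The single-agent IC50 comes from these fits.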

Selumetinib = compound: Cn1cnc2c(F)c(Nc3ccc(Br)cc3Cl)c(C(=O)NOCCO)cc21 [Selumetinib]; conditions: max 10 µM
In short: as §1

AZD2811 = compound: CCN(CCO)CCCOc1ccc2c(Nc3cc(CC(=O)Nc4cccc(F)c4)[nH]n3)ncnc2c1 [AZD2811]; conditions: max 1 µM
In short: as §1

SG3199 = compound: CC1=CN2[C@@H](C1)C=NC3=CC(=C(C=C3C2=O)OC)OCCCCCOC4=C(C=C5C(=C4)N=C[C@@H]6CC(=CN6C5=O)C)OC [SG3199]; conditions: max 0.001 µM
In short: as §1

Trametinib = compound: CC(=O)Nc1cccc(-n2c(=O)n(C3CC3)c(=O)c3c(Nc4ccc(I)cc4F)n(C)c(=O)c(C)c32)c1 [Trametinib]; conditions: max 1 µM
In short: as §1

Palbociclib = compound: CC(=O)c1c(C)c2cnc(Nc3ccc(N4CCNCC4)cn3)nc2n(C2CCCC2)c1=O [Palbociclib]; conditions: max 10 µM
In short: as §1

Doxorubicin = compound: COc1cccc2c1C(=O)c1c(O)c3c(c(O)c1C2=O)C[C@@](O)(C(=O)CO)C[C@@H]3O[C@H]1C[C@H](N)[C@H](O)[C@H](C)O1 [Doxorubicin]; conditions: max 1 µM
In short: as §1

Taselisib = compound: Cc1nc(-c2cn3c(n2)-c2ccc(-c4cnn(C(C)(C)C(N)=O)c4)cc2OCC3)n(C(C)C)n1 [Taselisib]; conditions: max 10 µM
In short: as §1

AZD6738 = compound: C[C@@H]1COCCN1C2=NC(=NC(=C2)C3(CC3)[S@](=N)(=O)C)C4=C5C=CNC5=NC=C4 [AZD6738]; conditions: max 10 µM
In short: as §1

AZD0156 = compound: CN(C)CCCOc1ccc(-c2ccc3ncc4c(c3c2)n(C2CCOCC2)c(=O)n4C)cn1 [AZD0156]; conditions: max 3 µM
In short: as §1

Prexasertib = compound: COc1cccc(OCCCN)c1-c1cc(Nc2cnc(C#N)cn2)n[nH]1 [Prexasertib]; conditions: max 1 µM
In short: as §1

Venetoclax = compound: CC1(C)CCC(CN2CCN(c3ccc(C(=O)NS(=O)(=O)c4ccc(NCC5CCOCC5)c([N+](=O)[O-])c4)c(Oc4cnc5[nH]ccc5c4)c3)CC2)=C(c2ccc(Cl)cc2)C1 [Venetoclax]; conditions: max 1 µM
In short: as §1

AZD4320 = compound: CN(CC[C@H](CSC1=CC=CC=C1)NC2=C(C=C(C=C2)S(=O)(=O)NC(=O)C3=CC=C(C=C3)N4CCC(CC4)[C@H](C5=CC=CC=C5C6=CC=C(C=C6)Cl)O)S(=O)(=O)C(F)(F)F)CCO [AZD4320]; conditions: max 1 µM
In short: as §1

AZD5991 = compound: Cc1c2c(nn1C)CSCc1cc(n(C)n1)CSc1cc(c3ccccc3c1)OCCCc1c(C(=O)O)n(C)c3c-2c(Cl)ccc13 [AZD5991]; conditions: max 1 µM
In short: as §1

MK-2206 = compound: NC1(c2ccc(-c3nc4ccn5c(=O)[nH]nc5c4cc3-c3ccccc3)cc2)CCC1 [MK-2206]; conditions: max 10 µM
In short: as §1

SN-38 = compound: CCc1c2c(nc3ccc(O)cc13)-c1cc3c(c(=O)n1C2)COC(=O)[C@]3(O)CC [SN-38]; conditions: max 0.3 µM
In short: as §1

AZD1775 = compound: C=CCn1c(=O)c2cnc(Nc3ccc(N4CCN(C)CC4)cc3)nc2n1-c1cccc(C(C)(C)O)n1 [AZD1775]; conditions: max 3 µM
In short: as §1

Dasatinib = compound: CC1=C(C(=CC=C1)Cl)NC(=O)C2=CN=C(S2)NC3=CC(=NC(=N3)C)N4CCN(CC4)CCO [Dasatinib]; conditions: max 2 µM
In short: as §1

Alisertib = compound: COc1cc(Nc2ncc3c(n2)-c2ccc(Cl)cc2C(c2c(F)cccc2OC)=NC3)ccc1C(=O)O [Alisertib]; conditions: max 10 µM
In short: as §1

AZD1390 = compound: CC(C)n1c(=O)n(C)c2cnc3cc(F)c(-c4ccc(OCCCN5CCCCC5)nc4)cc3c21 [AZD1390]; conditions: max 0.3 µM
In short: as §1

Crizotinib = compound: C[C@@H](Oc1cc(-c2cnn(C3CCNCC3)c2)cnc1N)c1c(Cl)ccc(F)c1Cl [Crizotinib]; conditions: max 10 µM
In short: as §1

AZD5153 = compound: COc1nnc2ccc(N3CCC(c4ccc(OCCN5CCN(C)C(=O)[C@H]5C)cc4)CC3)nn12 [AZD5153]; conditions: max 1 µM
In short: as §1

Capivasertib = compound: C1CN(CCC1(C(=O)N[C@@H](CCO)C2=CC=C(C=C2)Cl)N)C3=NC=NC4=C3C=CN4 [Capivasertib]; conditions: max 10 µM
In short: as §1

Savolitinib = compound: C[C@@H](c1ccc2nccn2c1)n1nnc2ncc(-c3cnn(C)c3)nc21 [Savolitinib]; conditions: max 1 µM
In short: as §1

AZD7648 = compound: Cc1cc2ncnn2cc1Nc1ncc2c(n1)n(C1CCOCC1)c(=O)n2C [AZD7648]; conditions: max 10 µM
In short: as §1

AZD8186 = compound: C[C@@H](Nc1cc(F)cc(F)c1)c1cc(C(=O)N(C)C)cc2c(=O)cc(N3CCOCC3)oc12 [AZD8186]; conditions: max 3 µM
In short: as §1

Gefitinib = compound: COc1cc2ncnc(Nc3ccc(F)c(Cl)c3)c2cc1OCCCN1CCOCC1 [Gefitinib]; conditions: max 10 µM
In short: as §1

Lapatinib = compound: CS(=O)(=O)CCNCc1ccc(-c2ccc3ncnc(Nc4ccc(OCc5cccc(F)c5)c(Cl)c4)c3c2)o1 [Lapatinib]; conditions: max 10 µM
In short: as §1

Cell Line	IC50, cell viability 72 h (Olaparib)	IC50, cell viability 72 h (Selumetinib)	IC50, cell viability 72 h (AZD2811)	IC50, cell viability 72 h (SG3199)	IC50, cell viability 72 h (Trametinib)	IC50, cell viability 72 h (Palbociclib)	IC50, cell viability 72 h (Doxorubicin)	IC50, cell viability 72 h (Taselisib)	IC50, cell viability 72 h (AZD6738)	IC50, cell viability 72 h (AZD0156)	IC50, cell viability 72 h (Prexasertib)	IC50, cell viability 72 h (Venetoclax)	IC50, cell viability 72 h (AZD4320)	IC50, cell viability 72 h (AZD5991)	IC50, cell viability 72 h (MK-2206)	IC50, cell viability 72 h (SN-38)	IC50, cell viability 72 h (AZD1775)	IC50, cell viability 72 h (Dasatinib)	IC50, cell viability 72 h (Alisertib)	IC50, cell viability 72 h (AZD1390)	IC50, cell viability 72 h (Crizotinib)	IC50, cell viability 72 h (AZD5153)	IC50, cell viability 72 h (Capivasertib)	IC50, cell viability 72 h (Savolitinib)	IC50, cell viability 72 h (AZD7648)	IC50, cell viability 72 h (AZD8186)	IC50, cell viability 72 h (Gefitinib)	IC50, cell viability 72 h (Lapatinib)
LN-229 (Glioblastoma)	> 10 µM	> 10 µM	> 1000 nM	> 1 nM	> 1000 nM	> 10 µM	> 1000 nM	> 10 µM	> 10 µM	> 3000 nM	70.1 nM	> 1000 nM	> 1000 nM	> 1000 nM	> 10 µM	> 300 nM	> 3000 nM	> 2000 nM	> 10 µM	> 300 nM	> 10 µM	> 1000 nM	> 10 µM	> 1000 nM	> 10 µM	> 3000 nM	> 10 µM	> 10 µM
LXF-289 (Lung Adenocarcinoma)	> 10 µM	> 10 µM	> 1000 nM	> 1 nM	> 1000 nM	> 10 µM	> 1000 nM	> 10 µM	> 10 µM	> 3000 nM	240 nM	> 1000 nM	> 1000 nM	> 1000 nM	–	> 300 nM	814 nM	171 nM	3.39 µM	> 300 nM	4.53 µM	377 nM	> 10 µM	> 1000 nM	> 10 µM	> 3000 nM	> 10 µM	4.86 µM
NCI-H23 (Lung Adenocarcinoma)	> 10 µM	> 10 µM	> 1000 nM	> 1 nM	348 nM	> 10 µM	> 1000 nM	> 10 µM	3.27 µM	> 3000 nM	59.6 nM	> 1000 nM	> 1000 nM	319 nM	> 10 µM	102 nM	381 nM	> 2000 nM	9.99 µM	> 300 nM	5.95 µM	208 nM	> 10 µM	> 1000 nM	> 10 µM	> 3000 nM	> 10 µM	> 10 µM
